Laboratory results from ChEMBL document CHEMBL1201862, “PubChem BioAssay data set” (2004).
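Where inhibition never reached the appropriate level, the endpoint shown equals the highest concentration tested. Otherwise, values were interpolated linearly from a five-concentration, 48-hour dose response in 96-well plates. GI50 marks 50% less growth.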 Calls of active or inactive are those of the source. Cut-off read from the data, not from the text of the source: active = GI50 up to about 1.1 µM and inactive = higher. *1 amine or outer side, *2 acyl side, *3 side chain or, on linkers, in order; H or OH if unused. Where a SMILES comes first, the peptide text is derived from it. [ ]: non-standard residue; d: D form. The star is where a group is joined. ξ: configuration not given here. X53 = CC(C)C[C@H](N[*:1])C1=N[C@H](C(=O)[*:2])CS1; Ile(3ξ) = CCC(C)[C@H](N)C(=O)O; Allyl(1,1-Me2) = C=CC(C)(C)*; Cbz = O=C(OCc1ccccc1)*; OBn = c1ccc(CO*)cc1

What was measured:
Assay in all cases: inhibition of tumour cell growth, NCI panel, 48 h
RXF 393 = test system: RXF 393
Malme-3M = test system: Malme-3M
PC-3 = test system: PC-3
SK-MEL-2 = test system: SK-MEL-2
OVCAR-5 = test system: OVCAR-5
OVCAR-8 = test system: OVCAR-8
HOP-62 = test system: HOP-62
KM12 = test system: KM12
BT-549 = test system: BT-549
COLO 205 = test system: COLO 205
UACC-257 = test system: UACC-257
SF-268 = test system: SF-268
CCRF-CEM = test system: CCRF-CEM
HCC 2998 = test system: HCC 2998
RPMI-8226 = test system: RPMI-8226
UACC-62 = test system: UACC-62
TK-10 = test system: TK-10
ACHN = test system: ACHN
SNB-19 = test system: SNB-19
LXFL 529 = test system: LXFL 529

Row | SMILES | GI50 (RXF 393) | GI50 (Malme-3M) | GI50 (PC-3) | GI50 (SK-MEL-2) | GI50 (OVCAR-5) | GI50 (OVCAR-8) | GI50 (HOP-62) | GI50 (KM12) | GI50 (BT-549) | GI50 (COLO 205) | GI50 (UACC-257) | GI50 (SF-268) | GI50 (CCRF-CEM) | GI50 (HCC 2998) | GI50 (RPMI-8226) | GI50 (UACC-62) | GI50 (TK-10) | GI50 (ACHN) | GI50 (SNB-19) | GI50 (LXFL 529)
1 | COc1cc2c(cc1O)NC(=O)[C@@H]1CCCN1C2=O | > 100 µM (inactive) | > 100 µM (inactive) | > 100 µM (inactive) | > 100 µM (inactive) | > 100 µM (inactive) | > 100 µM (inactive) | > 100 µM (inactive) | > 100 µM (inactive) | > 100 µM (inactive) | > 100 µM (inactive) | > 100 µM (inactive) | > 100 µM (inactive) | > 100 µM (inactive) | > 100 µM (inactive) | > 100 µM (inactive) | > 100 µM (inactive) | > 100 µM (inactive) | > 100 µM (inactive) | > 100 µM (inactive) | 
2 | CCCCCCC(=O)OC[n+]1cccc(-c2c(COC(=O)NC(C)C)c(COC(=O)NC(C)C)c3n2CCC3)c1 | 20.4 µM (inactive) | 38.9 µM (inactive) | > 56.8 µM (inactive) | 26.7 µM (inactive) | > 58.9 µM (inactive) | 34.4 µM (inactive) | 42.5 µM (inactive) | > 100 µM (inactive) | 37.8 µM (inactive) | 51.4 µM (inactive) | 64.1 µM (inactive) | 20.4 µM (inactive) | 9.55 µM (inactive) | > 100 µM (inactive) | 32.1 µM (inactive) | 20 µM (inactive) | 56.2 µM (inactive) | 21.4 µM (inactive) | 90.6 µM (inactive) | 
3 | C=CC(C)(C)OC[C@@H]1NC(=O)CNC(=O)[C@@H]2CCCN2C(=O)[C@H](C(C)CC)NC(=O)[C@@H]2CSC(=N2)[C@H](CC(C)C)NC1=O (some centres undefined) (cyclo(GS(Allyl(1,1-Me2))[X53][Ile(3ξ)]P)) | > 100 µM (inactive) | > 100 µM (inactive) | 44.2 µM (inactive) | > 100 µM (inactive) | > 100 µM (inactive) | 69.3 µM (inactive) | > 100 µM (inactive) | 55.2 µM (inactive) | 23.1 µM (inactive) | > 100 µM (inactive) | 38.5 µM (inactive) | 68.4 µM (inactive) | 30.9 µM (inactive) | 83 µM (inactive) | 18.6 µM (inactive) | 72.3 µM (inactive) | > 100 µM (inactive) | 76.6 µM (inactive) | > 100 µM (inactive) | 
4 | S=C(/N=c1/sc(Nc2ccccc2)nc2sc3c(c12)CCCC3)Nc1ccccc1 | > 62.5 µM (inactive) | > 62.5 µM (inactive) | > 62.5 µM (inactive) | > 62.5 µM (inactive) | > 62.5 µM (inactive) |  | > 62.5 µM (inactive) | > 62.5 µM (inactive) | > 62.5 µM (inactive) | > 62.5 µM (inactive) | > 62.5 µM (inactive) | > 62.5 µM (inactive) | > 62.5 µM (inactive) | > 62.5 µM (inactive) | 62.2 µM (inactive) | > 62.5 µM (inactive) | > 62.5 µM (inactive) | > 62.5 µM (inactive) | > 62.5 µM (inactive) | 
5 | CCOC(=O)C(C(=O)Cc1ccccc1)c1ccccc1 (centres undefined) |  | > 100 µM (inactive) |  | > 100 µM (inactive) | > 100 µM (inactive) | > 100 µM (inactive) | > 100 µM (inactive) | > 100 µM (inactive) |  | > 100 µM (inactive) | > 100 µM (inactive) | > 100 µM (inactive) | > 100 µM (inactive) |  | > 100 µM (inactive) | > 100 µM (inactive) | > 100 µM (inactive) | > 100 µM (inactive) | > 100 µM (inactive) | > 100 µM (inactive)
6 | COc1cc(C)c(S(=O)(=O)N(CCCN)OCCCN)c(C)c1C | 15.6 µM (inactive) | 21.9 µM (inactive) | 25.4 µM (inactive) | 22.2 µM (inactive) | 85.5 µM (inactive) | 38.5 µM (inactive) | 61.7 µM (inactive) | 40.8 µM (inactive) | 26.6 µM (inactive) | 21 µM (inactive) | 21.4 µM (inactive) | 36.7 µM (inactive) | 41.2 µM (inactive) | 16.6 µM (inactive) | 17.5 µM (inactive) | 48.1 µM (inactive) | 34 µM (inactive) | 49.4 µM (inactive) | 42 µM (inactive) | 
7 | CC(C)N1CCN(c2ccc(OCC3COC(Cn4cncn4)(c4ccc(Cl)cc4Cl)O3)cc2)CC1 (centres undefined) [TERCONAZOLE] | 11.6 µM (inactive) | 7.85 µM (inactive) | 14.6 µM (inactive) | 14.7 µM (inactive) | 15 µM (inactive) | 17.3 µM (inactive) | 13.8 µM (inactive) | 13.2 µM (inactive) | 14.4 µM (inactive) | 1.9 µM (inactive) | 1.89 µM (inactive) | 12.3 µM (inactive) | 11.5 µM (inactive) | 9.18 µM (inactive) | 10.5 µM (inactive) | 2.34 µM (inactive) | 9.62 µM (inactive) | 20.6 µM (inactive) | > 42.1 µM (inactive) | 
8 | c1ccc2c(Cc3[nH]c4ccccc4c3Cc3c[nH]c4ccccc34)c[nH]c2c1 | 1.94 µM (inactive) | 2.05 µM (inactive) | 2.38 µM (inactive) | 2.36 µM (inactive) | 2.85 µM (inactive) | 4.09 µM (inactive) | 3.38 µM (inactive) | 2.09 µM (inactive) | 5.57 µM (inactive) | 2.07 µM (inactive) | 2.71 µM (inactive) | 1.23 µM (inactive) | 2.16 µM (inactive) | 1.64 µM (inactive) | 2.74 µM (inactive) | 11 µM (inactive) | 2.85 µM (inactive) | 14.5 µM (inactive) | 4.93 µM (inactive) | 
9 | O=c1cc(NNc2ccccc2)[nH]c(=S)[nH]1 | 50.2 µM (inactive) | 37.7 µM (inactive) | > 100 µM (inactive) | 16.6 µM (inactive) | > 100 µM (inactive) | 36.1 µM (inactive) | > 100 µM (inactive) | 27.5 µM (inactive) | 97.5 µM (inactive) | 49 µM (inactive) | 47.6 µM (inactive) | 32.7 µM (inactive) | 29.8 µM (inactive) | 17.4 µM (inactive) | 10.5 µM (inactive) | 63.1 µM (inactive) | 24.9 µM (inactive) | 43.7 µM (inactive) | > 100 µM (inactive) | 
10 | C[N+](C)([O-])Cc1cccc(NC(=O)c2ccc(C(=O)Nc3cccc(C[N+](C)(C)[O-])c3)cc2)c1 | > 100 µM (inactive) | > 100 µM (inactive) | > 100 µM (inactive) | > 100 µM (inactive) | > 100 µM (inactive) | > 100 µM (inactive) | > 100 µM (inactive) | > 100 µM (inactive) | > 100 µM (inactive) | > 100 µM (inactive) | > 100 µM (inactive) | > 100 µM (inactive) | > 100 µM (inactive) | > 100 µM (inactive) | > 100 µM (inactive) | > 100 µM (inactive) | > 100 µM (inactive) | > 100 µM (inactive) | > 100 µM (inactive) | 
11 | COC(=O)C(Cc1ccc(O)cc1)NC(=O)C(CC(=O)OCc1ccccc1)NC(=O)OCc1ccccc1 (centres undefined) (Cbz-Asp(OBn)-Tyr-OMe; configuration not given here) | 14 µM (inactive) | 41.1 µM (inactive) | 17.7 µM (inactive) | 19.2 µM (inactive) | 22.7 µM (inactive) | 20.5 µM (inactive) | 19.7 µM (inactive) | 22.6 µM (inactive) | 22.6 µM (inactive) | 19.1 µM (inactive) | 21.2 µM (inactive) |  | 53.2 µM (inactive) | 17.6 µM (inactive) | 24.9 µM (inactive) |  | 18.2 µM (inactive) | 20.1 µM (inactive) | 18.3 µM (inactive) | 
12 | O=C1/C(=C/c2cccc(Br)c2)CSC/C1=C\c1cccc(Br)c1 | 1.79 µM (inactive) | 1.92 µM (inactive) | 2.5 µM (inactive) | 3.08 µM (inactive) | 4.88 µM (inactive) | 1.9 µM (inactive) | 2.72 µM (inactive) | 1.99 µM (inactive) | 2.13 µM (inactive) | 2.9 µM (inactive) | 2.38 µM (inactive) | 5.33 µM (inactive) | 1.4 µM (inactive) | 1.78 µM (inactive) | 0.537 µM (active) | 1.65 µM (inactive) | 5.69 µM (inactive) | 2.87 µM (inactive) | 2.88 µM (inactive) | 
13 | FC(F)(F)c1ccc(C2=N/S(c3ccccc3)=N\C(c3ccc(C(F)(F)F)cc3)=N/S(c3ccccc3)=N\2)cc1 (centres undefined) | > 100 µM (inactive) | > 100 µM (inactive) | > 100 µM (inactive) | > 100 µM (inactive) | > 100 µM (inactive) | > 100 µM (inactive) |  | > 100 µM (inactive) | > 100 µM (inactive) | > 100 µM (inactive) | > 100 µM (inactive) | > 100 µM (inactive) | > 100 µM (inactive) | > 100 µM (inactive) | > 100 µM (inactive) | > 100 µM (inactive) | > 100 µM (inactive) | > 100 µM (inactive) | > 100 µM (inactive) | 
14 | CC(C)=CCC[C@@H](C)c1c2nc3ccccc3[nH]c-2c(C)c(=O)c1O | 1.14 µM (inactive) | 1.58 µM (inactive) | 3.32 µM (inactive) | 1.59 µM (inactive) | 3.52 µM (inactive) | 1.71 µM (inactive) | 1.19 µM (inactive) | 2.45 µM (inactive) | 2.63 µM (inactive) | 5.65 µM (inactive) | 2.37 µM (inactive) | 0.906 µM (active) | 0.27 µM (active) | 5.45 µM (inactive) | 8.73 µM (inactive) | 1.09 µM (active) | 2.58 µM (inactive) | 0.568 µM (active) | 2.5 µM (inactive) | 
